Experimental data from patent publication US20080175813A1, “NOVEL ATTRACTANTS FOR VESPID WASPS” (PHEROTECH INTERNATIONAL INC., priority 2007, published 2008).

What was measured:
Type in all cases: in vivo
Vespula pennsylvanica [1] = assay: Experiment 1: field trapping in Oak Stump traps, chopped dried apples as supplement for heptyl butyrate; details: Experiment 1, N = 12, Oak Stump traps, 8-11 Sep. 2006, 12 g chopped dried apples in capture water
Protocol: The experiment was run for 3 days in Tilbury Industrial Park in Delta, B.C. from 8-11 Sep. 2006. Large 2 L Oak Stump traps, with a single transverse entry tube, and 300-350 mL of water with 2-3 drops of liquid detergent added in the bottom of the interior chamber, were hung at eye level from trees or woody bushes. Traps for each of three treatments were deployed in 12 randomized complete blocks, with ≧5 m between traps. […] Almost all captured wasps were western yellowjackets, Vespula pennsylvanica. The very few Polistes spp. captured (no more than two per trap, with most traps having none) were not counted.

Vespula pennsylvanica [2] = assay: Experiment 2: field trapping, apple pomace vs chopped dried apples as supplements for heptyl butyrate; details: Experiment 2, N = 15, 15-18 Sep. 2006, 12 g supplement in plastic mesh in capture water
Protocol: The experiment was run for 3 days in Tilbury Industrial Park in Delta, B.C. from 8-11 Sep. 2006. Large 2 L Oak Stump traps, with a single transverse entry tube, and 300-350 mL of water with 2-3 drops of liquid detergent added in the bottom of the interior chamber, were hung at eye level from trees or woody bushes. Traps for each of three treatments were deployed in 12 randomized complete blocks, with ≧5 m between traps. […] Experiment 2, with 15 replicates, was run at the same location as Experiment 1 from 15-18 Sep. 2006. […] The apple pomace was obtained from Agrisource Food Products Inc., Richmond, B.C.

Vespula pennsylvanica [3] = assay: Experiment 3: field trapping, wet vs dry apple pomace as supplements for heptyl butyrate; details: Experiment 3, N = 12, 21-22 Sep. 2006, 12 g apple pomace in mesh bag, suspended dry or immersed in capture water
Protocol: The experiment ran from 21-22 Sep. 2006, at the same location as the first two experiments. All other experimental conditions were the same as above. Twelve replicates of three treatments were tested: 1) heptyl butyrate alone, 2) heptyl butyrate plus a mesh bag containing 12 g of apple pomace suspended dry from the trap lid along with the heptyl butyrate lure, and 3) heptyl butyrate plus 12 g of apple pomace in a mesh bag immersed in the water-detergent capture medium in the bottom of the interior chamber.

Vespula pennsylvanica [4] = assay: Experiment 4: field trapping, apple pomace vs apple juice as supplements for heptyl butyrate; details: Experiment 4, N = 12, set up 29 Sep. 2006, collections Sept 30, Oct 2, Oct 4; 5 g apple pomace; apple juice replacing capture water
Source text: A final 12-replicate experiment was set up as above, and compared wet apple pomace with apple juice. The three treatments were: 1) heptyl butyrate alone, 2) heptyl butyrate plus apple juice, and 3) heptyl butyrate plus apple pomace. In the second treatment, apple juice (Sun-Rype Products Ltd., Kelowna, B.C.) with 2-3 drops of detergent added replaced the water-detergent capture medium in the bottom of the interior trap chamber. In the third treatment, the amount of apple pomace in the plastic mesh bag immersed in the water-detergent capture medium in the bottom of the interior chamber was reduced to 5 g, which is a realistic operational dose. The experiment was set up on 29 Sep. 2006, and captured wasps were removed from the traps and counted on September 30, October 2 and October 4.

Question: What does the source list for `CCCCCCCOC(=O)CCC` [Heptyl butyrate alone, heptyl butyrate]?
Answer: MEAN NUMBER OF WASPS CAPTURED ± SE (Vespula pennsylvanica [1]): 72.8 ± 13.9 b; MEAN NUMBER OF WASPS CAPTURED ± SE (Vespula pennsylvanica [1]; listed as heptyl butyrate): 73; MEAN NUMBER OF WASPS CAPTURED ± SE (Vespula pennsylvanica [2]): 15.7 ± 3.4 ab; MEAN NUMBER OF WASPS CAPTURED ± SE (Vespula pennsylvanica [3]): 9.8 ± 2.0 ab; MEAN NUMBER OF WASPS CAPTURED ± SE (Vespula pennsylvanica [4]): 24.3 ± 6.7 a
